# From patent publication US20120010075A1 (priority 2009, published 2012)
# System: Phytophthora infestans
# Assay: not given
# Format: in vivo, Phytophthora infestans on tomato
# Conditions: hydrazone 50 ppm + 50 μM CuCl2.2H2O, applied 24 h before inoculation, assessed 7 days after inoculation, tomato
row,Structure (SMILES),TLB % Control
1,Cc1ccc(C(=O)N/N=C(\CCc2ccccc2)c2ccccc2O)c(C)c1 [Example 31],33.3%
2,Cc1ccc(C(=O)N/N=C/c2cc(Br)cc(Br)c2O)c(C)c1 [Example 32],74.6%
3,C/C(=N\NC(=O)c1ccc(C)cc1C)c1ccccc1O [Example 33],50.9%
4,CC/C(=N\NC(=O)c1ccc(C)cc1C)c1ccccc1O [Example 34],68.4%
5,Cc1ccc(C(=O)N/N=C(\CCc2ccccc2)c2ccccc2O)c(C)c1 [Example 35],0.0%
6,CC(C)c1ccc(C(=O)N/N=C/c2cc(Cl)cc(Cl)c2O)cc1 [Example 41],87.0%
7,CC(C)c1ccc(C(=O)N/N=C/c2cc(Cl)cc(Cl)c2O)cc1 [Example 42],60.0%
8,CC/C(=N\NC(=O)c1cccc(Oc2ccccc2)c1)c1ccccc1O [Example 44],0.7%
9,O=C(N/N=C(\CCc1ccccc1)c1ccccc1O)c1c(Cl)cccc1Cl [Example 45],49.0%
10,O=C(N/N=C/c1cc(Cl)cc(Cl)c1O)c1cccc(Oc2ccccc2)c1 [Example 46],72.7%
11,C/C(=N\NC(=O)c1cccc(Oc2ccccc2)c1)c1ccccc1O [Example 47],33.0%
12,CC/C(=N\NC(=O)c1c(Cl)cccc1Cl)c1ccccc1O [Example 48],40.0%
13,O=C(N/N=C(\CCc1ccccc1)c1ccccc1O)c1ccccc1Cl [Example 49],0.7%
14,C/C(=N\NC(=O)c1ccccc1Br)c1cc(Cl)cc(Cl)c1O [Example 57],89.5%
15,C/C(=N\NC(=O)c1ccccc1C(F)(F)F)c1ccccc1O [Example 58],49.0%
16,Cc1cccc(C(=O)N/N=C/c2cc(Cl)cc(Cl)c2O)c1O [Example 73],87.3%
17,O=C(N/N=C/c1cc(Cl)cc(Cl)c1O)c1cc(Cl)cc(Cl)c1 [Example 79],84.4%
18,O=C(N/N=C/c1cc(Cl)cc(Cl)c1O)c1ccc(C(F)(F)F)cc1 [Example 81],97.0%
19,CCOc1cccc(C(=O)N/N=C/c2cc(Cl)cc(Cl)c2O)c1 [Example 86],80.7%
20,O=C(N/N=C/c1cc(Cl)cc(Cl)c1O)c1ccc2ccccc2c1 [Example 92],71.9%
21,CCOc1ccc(C(=O)N/N=C/c2cc(Cl)cc(Cl)c2O)cc1 [Example 97],76.3%

# System: not given
# Assay: not given
# Conditions: not given
row,Structure (SMILES),melting point
1,Cc1ccc(C(=O)N/N=C(\CCc2ccccc2)c2ccccc2O)c(C)c1 [Example 31],143 to 145 °C
2,Cc1ccc(C(=O)N/N=C/c2cc(Br)cc(Br)c2O)c(C)c1 [Example 32],192 to 194 °C
3,C/C(=N\NC(=O)c1ccc(C)cc1C)c1ccccc1O [Example 33],188 to 190 °C
4,CC/C(=N\NC(=O)c1ccc(C)cc1C)c1ccccc1O [Example 34],175 to 176 °C
5,Cc1ccc(C(=O)N/N=C(\CCc2ccccc2)c2ccccc2O)c(C)c1 [Example 35],162 to 166 °C
6,CC(C)c1ccc(C(=O)N/N=C/c2cc(Cl)cc(Cl)c2O)cc1 [Example 41],261 to 263 °C
7,CC(C)c1ccc(C(=O)N/N=C/c2cc(Cl)cc(Cl)c2O)cc1 [Example 42],270 to 272 °C
8,CC/C(=N\NC(=O)c1cccc(Oc2ccccc2)c1)c1ccccc1O [Example 44],148 to 163 °C
9,O=C(N/N=C(\CCc1ccccc1)c1ccccc1O)c1c(Cl)cccc1Cl [Example 45],204 to 208 °C
10,O=C(N/N=C/c1cc(Cl)cc(Cl)c1O)c1cccc(Oc2ccccc2)c1 [Example 46],170 to 171 °C
11,C/C(=N\NC(=O)c1cccc(Oc2ccccc2)c1)c1ccccc1O [Example 47],178 to 180 °C
12,CC/C(=N\NC(=O)c1c(Cl)cccc1Cl)c1ccccc1O [Example 48],181 to 184 °C
13,O=C(N/N=C(\CCc1ccccc1)c1ccccc1O)c1ccccc1Cl [Example 49],173 to 177 °C
14,C/C(=N\NC(=O)c1ccccc1Br)c1cc(Cl)cc(Cl)c1O [Example 57],220 to 222 °C
15,C/C(=N\NC(=O)c1ccccc1C(F)(F)F)c1ccccc1O [Example 58],208 to 210 °C
16,Cc1cccc(C(=O)N/N=C/c2cc(Cl)cc(Cl)c2O)c1O [Example 73],202 to 209 °C
17,O=C(N/N=C/c1cc(Cl)cc(Cl)c1O)c1cc(Cl)cc(Cl)c1 [Example 79],248 to 249 °C
18,O=C(N/N=C/c1cc(Cl)cc(Cl)c1O)c1ccc(C(F)(F)F)cc1 [Example 81],238 to 240 °C
19,CCOc1cccc(C(=O)N/N=C/c2cc(Cl)cc(Cl)c2O)c1 [Example 86],207 to 209 °C
20,O=C(N/N=C/c1cc(Cl)cc(Cl)c1O)c1ccc2ccccc2c1 [Example 92],215 to 217 °C
21,CCOc1ccc(C(=O)N/N=C/c2cc(Cl)cc(Cl)c2O)cc1 [Example 97],279 to 281 °C

# System: Leptosphaeria nodorum (LEPTNO)
# Assay: In vitro fungitoxicity of hydrazones with and without copper towards Leptosphaeria nodorum (Example 26)
# Format: cell-based
# Conditions: Parastagonospora nodorum, 72 h, compound 0.05 μg/mL, copper-minus medium, 72 h at 25° C.; read-out: LEPTNO % Inhn. Minus Copper Observed
row,Structure (SMILES),inhibition of growth at 0.05 µg/mL
1,Cc1ccc(C(=O)N/N=C(\CCc2ccccc2)c2ccccc2O)c(C)c1 [Example 31],2.2%
2,CC/C(=N\NC(=O)c1cccc(Oc2ccccc2)c1)c1ccccc1O [Example 44],0.3%
3,O=C(N/N=C(\CCc1ccccc1)c1ccccc1O)c1c(Cl)cccc1Cl [Example 45],0%
4,O=C(N/N=C/c1cc(Cl)cc(Cl)c1O)c1cccc(Oc2ccccc2)c1 [Example 46],20.5%
5,C/C(=N\NC(=O)c1cccc(Oc2ccccc2)c1)c1ccccc1O [Example 47],0%
6,CC/C(=N\NC(=O)c1c(Cl)cccc1Cl)c1ccccc1O [Example 48],0.3%
7,O=C(N/N=C(\CCc1ccccc1)c1ccccc1O)c1ccccc1Cl [Example 49],14.6%
8,C/C(=N\NC(=O)c1ccccc1Br)c1cc(Cl)cc(Cl)c1O [Example 57],0%
9,C/C(=N\NC(=O)c1ccccc1C(F)(F)F)c1ccccc1O [Example 58],0%
10,Cc1cccc(C(=O)N/N=C/c2cc(Cl)cc(Cl)c2O)c1O [Example 73],8.6%
11,O=C(N/N=C/c1cc(Cl)cc(Cl)c1O)c1cc(Cl)cc(Cl)c1 [Example 79],12.2%
12,O=C(N/N=C/c1cc(Cl)cc(Cl)c1O)c1ccc(C(F)(F)F)cc1 [Example 81],2.4%
13,CCOc1cccc(C(=O)N/N=C/c2cc(Cl)cc(Cl)c2O)c1 [Example 86],0.3%
14,O=C(N/N=C/c1cc(Cl)cc(Cl)c1O)c1ccc2ccccc2c1 [Example 92],1.9%
15,CCOc1ccc(C(=O)N/N=C/c2cc(Cl)cc(Cl)c2O)cc1 [Example 97],18.2%

# Same assay, conditions: compound 0.05 μg/mL, copper-minus medium, 72 h at 25° C.
row,Structure (SMILES),LEPTNO % Inhn. Minus Copper Observed
1,Cc1ccc(C(=O)N/N=C/c2cc(Br)cc(Br)c2O)c(C)c1 [Example 32],0.0%
2,C/C(=N\NC(=O)c1ccc(C)cc1C)c1ccccc1O [Example 33],0.0%
3,CC/C(=N\NC(=O)c1ccc(C)cc1C)c1ccccc1O [Example 34],0.0%
4,Cc1ccc(C(=O)N/N=C(\CCc2ccccc2)c2ccccc2O)c(C)c1 [Example 35],3.8%
5,CC(C)c1ccc(C(=O)N/N=C/c2cc(Cl)cc(Cl)c2O)cc1 [Example 41],0.0%
6,CC(C)c1ccc(C(=O)N/N=C/c2cc(Cl)cc(Cl)c2O)cc1 [Example 42],9.2%

# Same assay, conditions: compound 0.05 μg/mL, copper-plus medium (CuCl2.2H2O), 72 h at 25° C.
row,Structure (SMILES),LEPTNO % Inhn. Plus Copper Observed
1,Cc1ccc(C(=O)N/N=C(\CCc2ccccc2)c2ccccc2O)c(C)c1 [Example 31],89.0%
2,Cc1ccc(C(=O)N/N=C/c2cc(Br)cc(Br)c2O)c(C)c1 [Example 32],94.4%
3,C/C(=N\NC(=O)c1ccc(C)cc1C)c1ccccc1O [Example 33],93.1%
4,CC/C(=N\NC(=O)c1ccc(C)cc1C)c1ccccc1O [Example 34],97.8%
5,Cc1ccc(C(=O)N/N=C(\CCc2ccccc2)c2ccccc2O)c(C)c1 [Example 35],96.5%
6,CC(C)c1ccc(C(=O)N/N=C/c2cc(Cl)cc(Cl)c2O)cc1 [Example 41],97.2%
7,CC(C)c1ccc(C(=O)N/N=C/c2cc(Cl)cc(Cl)c2O)cc1 [Example 42],93.2%
8,CC/C(=N\NC(=O)c1cccc(Oc2ccccc2)c1)c1ccccc1O [Example 44],93.0%
9,O=C(N/N=C(\CCc1ccccc1)c1ccccc1O)c1c(Cl)cccc1Cl [Example 45],96.2%
10,O=C(N/N=C/c1cc(Cl)cc(Cl)c1O)c1cccc(Oc2ccccc2)c1 [Example 46],95.9%
11,C/C(=N\NC(=O)c1cccc(Oc2ccccc2)c1)c1ccccc1O [Example 47],97.1%
12,CC/C(=N\NC(=O)c1c(Cl)cccc1Cl)c1ccccc1O [Example 48],94.6%
13,O=C(N/N=C(\CCc1ccccc1)c1ccccc1O)c1ccccc1Cl [Example 49],97.1%
14,C/C(=N\NC(=O)c1ccccc1Br)c1cc(Cl)cc(Cl)c1O [Example 57],97.3%
15,C/C(=N\NC(=O)c1ccccc1C(F)(F)F)c1ccccc1O [Example 58],95.0%
16,Cc1cccc(C(=O)N/N=C/c2cc(Cl)cc(Cl)c2O)c1O [Example 73],98.0%
17,O=C(N/N=C/c1cc(Cl)cc(Cl)c1O)c1cc(Cl)cc(Cl)c1 [Example 79],97.1%
18,O=C(N/N=C/c1cc(Cl)cc(Cl)c1O)c1ccc(C(F)(F)F)cc1 [Example 81],96.1%
19,CCOc1cccc(C(=O)N/N=C/c2cc(Cl)cc(Cl)c2O)c1 [Example 86],97.6%
20,O=C(N/N=C/c1cc(Cl)cc(Cl)c1O)c1ccc2ccccc2c1 [Example 92],98.2%
21,CCOc1ccc(C(=O)N/N=C/c2cc(Cl)cc(Cl)c2O)cc1 [Example 97],98.3%
